From patent US6358977B1, “Use of 4-piperidinemethanol derivatives in treatment of neurodevelopmental disorders” (A. Carlsson Research AB, priority 1998, dated 2002)
Entries after “also recorded” stand apart in the source; their conditions may differ.

Tested on: Male NMRI mice
Assay: Animal model of autism: defective habituation (locomotor activity) in mice rendered hypoglutamatergic with MK-801
Type: in vivo
Excerpt: The inventor of the present invention and her coworkers have developed an animal model of autism, where mice are rendered hypoglutamatergic by treatment with the glutamate antagonist MK-801 (dizocilpine). Similarly to persons with autism, these hypoglutamatergic animals display defective habituation, perseverant behavior (e.g. relentless forward locomotion, so-called “obstinate progression”), stereotypies, a meager behavioral repertoire and difficulties to change behavioral program. The researchers have chosen to focus their investigation on the defective habituation, since this variable is easily quantified, and a prominent feature of autism.
Male NMRI mice (B&K Universal AB, Sollentuna, Sweden) weighing 25-30g at the time of testing were used in the experiments. Animals were housed in groups of about 20 per cage for at least one week before the experiment was carried out, with free access to water and food. Temperature: 20-22° C.; 12h light-dark cycle (lights on 6 AM).
(+)-MK-801 hydrogen maleate (dizocilpine; Research Biochemical Inc) was dissolved in physiological saline. M100907 [(+)-(R)-α-(2,3-dimethoxyphenyl)-1-[2-(4-fluorophenyl) ethyl]-4-piperidinemethanol; courtesy Hoechst Marion Roussel, Inc USA] was dissolved in a few microliters of acetic acid and a 5.5% glucose solution. The injection volume was 10 ml/kg. Control. animals were always given the same solvent as the drug was dissolved in.
Locomotor activity was measured using activity meters (Diaiscan animal activity monitor, model RXYZM (16) Tao, Omnitech Electronics, Columbus, Ohio, USA). The equipment consists of eight light and sound attenuated boxes (42×42×30 cm) with infrared photo sensors along the front and the side near the floor of the boxes.
When moved to a novel environment, normal mice display an initial phase of exploratory activity lasting about 30 minutes. […] The results shown in the figure are medians and upper and lower quartiles.
The inventor and […] co-workers then tested a compound according to the invention, namely M100907. […] M100907 was administered intraperitoneally immediately before the commencement of the behavioral recording. The M100907 doses were 0.001., 0.01 and 0.1 mg/kg, respectively. The results shown are medians and upper and lower quartiles (veh=vehicle=controls).

Compound | effect on MK-801-induced deficient habituation (loss of habituation, FIG. 2) (M100907 0.001, 0.01 and 0.1 mg/kg intraperitoneally immediately before behavioral recording, MK-801-treated mice, ordinate m/30 min) | interference with normal behavior (M100907 0.001, 0.01 and 0.1 mg/kg intraperitoneally, mice) | hyperactivity induced by the glutamate antagonist MK-801 (mouse, M100907 intraperitoneally) | habituation in novel environment (loss of habituation, FIG. 1) (MK-801 0.3 or 0.8 mg/kg intraperitoneally immediately before 70 minutes recording, ordinate counts/5 min interval)
COc1cccc([C@H](O)C2CCN(CCc3ccc(F)cc3)CC2)c1OC [M100907, R-(+)-α-(2,3-dimethoxyphenyl)-1-[2-(4-fluorophenylethyl)]-4-piperidine-methanol] | displays anti-autistic effects; also recorded: alleviates the deficient habituation | without interfering with normal behavior | reducing the hyperactivity | –
C[C@]12N[C@H](Cc3ccccc31)c1ccccc12 [MK-801, reference compound] | – | – | – | deficient habituation; also recorded: impaired habituation
